Test results: patent US20260250325A1, “Antiviral Polypeptide Membrane Fusion Inhibitor, and Preparation Method and Application Thereof” (priority 2025, published 2026)
Where a SMILES comes first, the peptide text is derived from it. The star is where a group is joined. Succinyl(4-O-cholesteryl) = CC(C)CCC[C@@H](C)[C@H]1CC[C@H]2[C@@H]3CC=C4C[C@@H](OC(=O)CCC(=O)*)CC[C@]4(C)[C@H]3CC[C@]12C

Key:
RSV A2 virus strain [1] = experiment: Mouse RSV A2 challenge protection, lung viral titer by plaque method; assay type: in vivo, BALB/c mice; conditions: for Mean (PFU/g lung): BALB/c mice, tracheal nebulization 1 mg/kg QD for 5 days, lung collected 2 h after final administration on Day 4; for effect on viral titer in lung tissue (in words): mice, tracheal nebulization once daily for 5 days
Protocol: Female BALB/c mice were from Shanghai Yishang Biotechnology Co., Ltd. HEp- 2 were from the ATCC, with a catalog number CCL-23. The cells were cultured in a DMEM medium solution in which 10% (v/v) fetal bovine serum and 1% penicillin and streptomycin were added. The RSV A2 virus strain was from the ATCC, with a catalog number VR-1540.
Eight-week-old female BALB/c mice were grouped based on body weight (n=6). All animals were intranasally challenged with RSV on Day 0 at a challenge dosage of 1×10^6 pfu (20 μL) per animal. Administration began 1 h after Day 0 challenge; the polypeptide sample, positive control, and solvent control were administered via tracheal nebulization once daily for 5 consecutive days (see Table 3 below for administration dosage and administration frequency). Lung tissue was collected from all animals 2 h after the final administration on Day 4; left lung tissue was rapidly frozen in a virus protection solution with a 10-fold volume and stored below −70° C.; and a viral titer was detected by using a plaque method.
For analysis, the lung RSV A2 virus was determined by performing a tissue homogenate viral load plaque method. In short, on the day prior to sample detection, the HEp-2 cells were inoculated into a 12-well plate (spreading density being 0.3×10^6 cells/mL, with 1000 μL of cell suspension per well) according to a standard HEp-2 cell culture operation procedure. On the day of incubation, the supernatant was taken from the tissue sample that was homogenized using a tissue homogenizer (maintaining a low-temperature environment), and the supernatant was taken after centrifugation. The tissue homogenate sample was diluted with serum-free DMEM, and inoculated into a 12-well plate at a final volume of 400 μL. After 2 h of incubation, the homogenate supernatant was discarded, and 1.5 mL of a covering layer (cell culture medium containing 1% soft agar) was added to each well and cultured in the incubator for approximately 72 h. The covering layer was discarded, the cells were fixed, blocking was performed by using a blocking solution, dyeing was performed with HRP-RSVG, development and air drying were terminated with pure water. Colored spots on the well plate were counted by using a fluorescent (enzyme-linked) immunoassay spot analyzer, and the viral titer was expressed as a plaque-forming unit per gram of tissue (PFU/g). The viral titer was calculated as an arithmetic mean±standard error of all animals in a group.
One hour after RSV A2 challenge in mice, compounds 13, 14, 17, 19, 20, 21, 26, 27, 28, and 40 were administered via tracheal nebulization once daily for 5 consecutive days; and 2 h after the final administration, lung tissue was collected from all groups for viral plaque detection, and results were shown in Table 3.

RSV A2 virus strain [2] = experiment: Cotton rat RSV A2 challenge protection, lung nucleic acid load by RT-qPCR; assay type: in vivo; conditions: cotton rats; for Nucleic acid load RT-qPCR detection results Log10 mean (copy number/gram of lung tissue): tracheal nebulization 1 mg/kg QD for 5 days, lung collected 2 h after final administration on Day 4; for effect on viral titer in lung tissue (in words): tracheal nebulization once daily for 5 days
Text: Female cotton rats were from Shanghai Yishang Biotechnology Co., Ltd. The RSV A2 virus strain was from the ATCC, with a catalog number VR-1540. RT-qPCR primer+probe primer were supplied by Qingke Biotechnology Co., Ltd, with batch number TSP20241227-025-00187. The RT-qPCR standard was provided by Vazyme, with batch number 20241008.
Female cotton rats (6-8 weeks old) were grouped based on body weight (n=5). All animals were intranasally challenged with RSV on Day 0 at a challenge dosage of […] pfu (50 μL) per animal. Administration began 1 h after Day 0 challenge; the polypeptide sample, positive control, and solvent control were administered via tracheal nebulization once daily for 5 consecutive days. Lung tissue was collected from all animals 2 h after the final administration on Day 4. Left lung tissue (including partial trachea) was rapidly frozen in a virus protection solution with a 10-fold volume and stored below −70° C.; and the viral titer was detected with RT-qPCR.
First, sample homogenization and lung tissue RNA extraction were performed, and the supernatant was taken from the tissue sample that was homogenized using a tissue homogenizer (maintaining a low-temperature environment). The approximately 100 μL of the homogenate supernatant was taken, and total tissue RNA was extracted by using a VeZol reagent-chloroform-water phase-magnetic bead method, and dissolved in RNase-free water. The RT-qPCR reaction system was prepared as follows: a one-step RT-qPCR reaction system was prepared by using an RNA template, a probe, a primer pair, an RT-qPCR buffer, and the RNase-free water; each sample was tested in duplicated wells, with each well containing 20 μL of the one-step RT-qPCR reaction system; a quantitative standard curve well (RSV A2 N gene full-length plasmid), a positive quality control well, and a negative quality control well were arranged at the same time. Then, amplification programs were set according to reverse transcription, pre-denaturation, and cyclic amplification, and amplification data was collected by using a real-time fluorescence quantification PCR instrument, and a mean CT value for duplicated wells was calculated. The CT value from the test results for each sample was substituted into a quantitative standard curve to calculate a copy number. A calculation formula for RSV viral load (copy number/gram of lung tissue) was: sample viral load (copy number/gram of lung tissue)=copy number/relative tissue input (g).
One hour after RSV A2 challenge in cotton rats, compounds 13, 14, 17, 19, 20, 21, 26, 27, 28, and 40 were administered via tracheal nebulization once daily for 5 consecutive days; and 2 h after the final administration, lung tissue was collected from all groups for viral titer detection, and results were shown in Table 4.

SMILES | Mean (PFU/g lung) (RSV A2 virus strain [1]) | effect on viral titer in lung tissue (in words) (RSV A2 virus strain [1]) | Nucleic acid load RT-qPCR detection results Log10 mean (copy number/gram of lung tissue) (RSV A2 virus strain [2]) | effect on viral titer in lung tissue (in words) (RSV A2 virus strain [2])
CC[C@H](C)[C@H](NC(=O)[C@H](CCCCN)NC(=O)[C@H](CCCCN)NC(=O)[C@H](CC(C)C)NC(=O)[C@H](CO)NC(=O)[C@H](CCC(=O)O)NC(=O)[C@H](CCC(=O)O)NC(=O)[C@@H](NC(=O)[C@H](CCCCN)NC(=O)[C@H](CCCCN)NC(=O)[C@H](CC(N)=O)NC(=O)[C@@H](NC(=O)[C@H](CCC(=O)O)NC(=O)[C@H](CCC(=O)O)NC(=O)[C@@H](NC(=O)[C@H](CCCCN)NC(=O)[C@H](CCCCN)NC(=O)[C@H](CC(=O)O)NC(=O)[C@H](Cc1ccccc1)NC(=O)[C@H](CCC(=O)O)NC(=O)[C@H](CC(=O)O)NC(=O)[C@H](Cc1c[nH]c2ccccc12)NC(C)=O)[C@@H](C)CC)C(C)C)[C@@H](C)CC)C(=O)N[C@@H](CCC(=O)O)C(=O)N[C@@H](CCC(=O)O)C(=O)N[C@@H](CO)C(=O)N[C@@H](CC(=O)O)C(=O)N[C@@H](CCCCN)C(=O)N[C@@H](CCCCN)C(=O)N[C@@H](CC(C)C)C(=O)N[C@@H](CCC(=O)O)C(=O)N[C@@H](C)C(=O)N[C@@H](C)C(=O)N[C@@H](C)C(=O)N[C@@H](CCCCN)C(=O)N[C@@H](CCCCNC(=O)CCC(=O)O[C@H]1CC[C@@]2(C)C(=CC[C@H]3[C@@H]4CC[C@H]([C@H](C)CCCC(C)C)[C@@]4(C)CC[C@@H]32)C1)C(N)=O [Compound 13] (Ac-WDEFDKKIEEVNKKIEESLKKIEESDKKLEAAAKK(Succinyl(4-O-cholesteryl))-NH2) | 5380 | significantly reduce the viral titer in lung tissue | 7.82 Log10 copy number/gram of lung | significantly reduce the viral titer in lung tissue
CC[C@H](C)[C@H](NC(=O)[C@H](CCCCN)NC(=O)[C@H](CCCCN)NC(=O)[C@H](CC(C)C)NC(=O)[C@H](CO)NC(=O)[C@H](CCC(=O)O)NC(=O)[C@H](CCC(=O)O)NC(=O)[C@@H](NC(=O)[C@H](CCCCN)NC(=O)[C@H](CCCCN)NC(=O)[C@H](CC(N)=O)NC(=O)[C@@H](NC(=O)[C@H](CCC(=O)O)NC(=O)[C@H](CCC(=O)O)NC(=O)[C@@H](NC(=O)[C@H](CCCCN)NC(=O)[C@H](CCCCN)NC(=O)[C@H](CC(=O)O)NC(=O)[C@H](Cc1ccccc1)NC(=O)[C@H](CCC(=O)O)NC(=O)[C@H](CC(=O)O)NC(=O)[C@H](CO)NC(C)=O)[C@@H](C)CC)C(C)C)[C@@H](C)CC)C(=O)N[C@@H](CCC(=O)O)C(=O)N[C@@H](CCC(=O)O)C(=O)N[C@@H](CO)C(=O)N[C@@H](CC(=O)O)C(=O)N[C@@H](CCCCN)C(=O)N[C@@H](CCCCN)C(=O)N[C@@H](CC(C)C)C(=O)NCC(=O)N[C@@H](CO)C(=O)NCC(=O)N[C@@H](CO)C(=O)NCC(=O)N[C@@H](CCCCNC(=O)CCC(=O)O[C@H]1CC[C@@]2(C)C(=CC[C@H]3[C@@H]4CC[C@H]([C@H](C)CCCC(C)C)[C@@]4(C)CC[C@@H]32)C1)C(N)=O [Compound 20] (Ac-SDEFDKKIEEVNKKIEESLKKIEESDKKLGSGSGK(Succinyl(4-O-cholesteryl))-NH2) | 8928 | significantly reduce the viral titer in lung tissue | 8.55 Log10 copy number/gram of lung | significantly reduce the viral titer in lung tissue
CC[C@H](C)[C@H](NC(=O)[C@H](CO)NC(=O)[C@H](C)NC(=O)[C@H](CC(=O)O)NC(=O)[C@H](Cc1ccccc1)NC(=O)[C@H](CCC(=O)O)NC(=O)[C@H](CC(=O)O)NC(C)=O)C(=O)N[C@@H](CO)C(=O)N[C@@H](CCC(N)=O)C(=O)N[C@H](C(=O)N[C@@H](CC(N)=O)C(=O)N[C@@H](CCC(=O)O)C(=O)N[C@@H](CCCCN)C(=O)N[C@H](C(=O)N[C@@H](CC(N)=O)C(=O)N[C@@H](CCC(N)=O)C(=O)N[C@@H](CO)C(=O)N[C@@H](CC(C)C)C(=O)N[C@@H](CCC(=O)O)C(=O)N[C@@H](CCC(=O)O)C(=O)N[C@H](C(=O)N[C@@H](CCCNC(=N)N)C(=O)N[C@@H](CCCCN)C(=O)N[C@@H](CO)C(=O)N[C@@H](CC(=O)O)C(=O)N[C@@H](CCC(=O)O)C(=O)N[C@@H](CC(C)C)C(=O)N[C@@H](CC(C)C)C(=O)N[C@@H](Cc1c[nH]cn1)C(=O)N[C@@H](CC(N)=O)C(=O)N[C@@H](CCC(=O)O)C(=O)N[C@@H](C)C(=O)N[C@@H](C)C(=O)N[C@@H](C)C(=O)N[C@@H](CCCCN)C(=O)N[C@@H](CCCCNC(=O)CCC(=O)O[C@H]1CC[C@@]2(C)C(=CC[C@H]3[C@@H]4CC[C@H]([C@H](C)CCCC(C)C)[C@@]4(C)CC[C@@H]32)C1)C(N)=O)[C@@H](C)CC)[C@@H](C)CC)C(C)C [Compound 28] (Ac-DEFDASISQVNEKINQSLEEIRKSDELLHNEAAAKK(Succinyl(4-O-cholesteryl))-NH2) | 8425 | significantly reduce the viral titer in lung tissue | 7.76 Log10 copy number/gram of lung | significantly reduce the viral titer in lung tissue
